Measured values published in patent US20210267981A1, “COMPOUNDS FOR THE TREATMENT OF HIV INFECTION AND OTHER DISEASES CAUSED BY RNA VIRUSES” (UNIVERSIDAD CATOLICA DE VALENCIA "SAN VICENTE MARTIR", priority 2018, published 2021).
pEC50, pIC50, pKd: −log10 of the molar value. Where two headings read alike, the source gives them in different places.

Experiments:
[1] = system: IIB-Rev34-50 interaction (subdomain IIB of RRE and FITC-labeled Rev34-50 peptide); assay: Fluorescence anisotropy (FA) inhibition of IIBh-Rev34-50 interaction; type: binding, HIV-1
Method: Fluorescence Anisotropy (FA).
These experiments were performed and analyzed as described in the state of the art (Prado et al., Biochem Pharmacol 107 (2016) 14-28; Gonzalez-Bulnes et al., Angewandte Chemie-International Edition 52(50) (2013) 13405-13409; Luedtke et al., Biopolymers 70(1) (2003) 103-19), using 96-well plates and Victor X3 or Victor X5 plate readers (Perkin Elmer, Waltham USA). The assays used 10 nM of frevp and 60 nM of IIBh, and included one positive control (a mixture of IIBh and frevp) and two negative controls (frevp and a mixture of IIBh, frevp, and neomycin B). IIBh-frevp inhibition was only considered to exist when anisotropy reached the expected minimum value at the highest inhibitor concentrations. To ensure that there would not be spectral superposition with FITC, anisotropy data was also collected for each of the compounds. None of them emitted fluorescence under the assay conditions. These experiments were repeated three times for each compound.
(§1) The capacity of the compounds to inhibit IIB-Rev34-50 interaction was evaluated by means of an assay based on the detection, by means of fluorescence anisotropy (FA), of the shift of an FITC-labeled Rev34-50 peptide from its binding site in subdomain IIB of RRE. The capacity of the compounds to inhibit the formation of the RRE-Rev complex was evaluated by means of an electrophoretic mobility shift assay (EMSA).

[2] = system: complete RRE-Rev complex; assay: Electrophoretic mobility shift assay (EMSA) of complete RRE-Rev complex formation; type: binding, HIV-1; conditions: for pIC50: 78 nM RRE and 1.32 μM Rev, two independent experiments
Method: Electrophoretic Mobility Shift Assays (EMSA).
These experiments used 78 nM of complete RRE, 1.32 μM of complete Rev, and increasing concentrations of each compound, and were carried out and analyzed as described previously in the state of the art (Prado et al., Biochem Pharmacol 107 (2016) 14-28; Fang et al., Cell 155(3) (2013) 594-605). The IC50 values were determined by measuring the area and the intensity of the band corresponding to free RRE. These experiments were performed at least three times for each compound.
as §1

[3] = system: subdomain IIB of the RRE (IIBh-19ap RNA); assay: Fluorescence intensity binding to IIBh RNA, with or without competing RNAtCys or LTRd DNA; parameters: species or system HIV-1; conditions: for specificity of the interaction with IIB: 100-fold molar excess of RNAtCys or LTRd; for specificity IIB/DNA: Kd(IIBh)/Kd(IIBh + LTRd) quotient; for specificity IIB/RNA: Kd(IIBh)/Kd(IIBh + tRNA) quotient
Method: Depending on the absorption spectra of the compounds, these experiments measured association with IIBh-19ap or IIBh-23fl RNA sequences labeled with 2-aminopurine and fluorescein in residues A19 and U23 of the IIB loop, respectively (Prado et al., Biochem Pharmacol 107 (2016) 14-28), and were carried out in a SPECTRA GEMINI XPS plate reader (Molecular Devices, Sunnyvale, USA) or a Victor X5 plate reader (Perkin Elmer). The IIB RNA concentration in these assays was 100 nM, and the specificity of the interactions with respect to RNA and DNA was evaluated by duplicating the experiments in the presence of a 100-fold molar excess (10 μM) of RNAtCys or LTRd DNA duplex. All the fluorescence intensity experiments were performed at least three times for each compound.
The specificity of the interaction was evaluated by duplicating the experiments in the presence of a 100-fold molar excess of RNAtCys. Likewise, specificity with respect to a double-stranded DNA was evaluated by further performing the experiments with a 100-fold molar excess of a DNA duplex with 26 base pairs (identified as LTRd) containing NF-κB and Sp-1 transcription factor-binding sites (Prado et al., Biochem Pharmacol 107 (2016) 14-28). These two factors bind to the LTR promoter of HIV-1 DNA and are essential for virus replication (Jones et al., AnnuRevBiochem 63 (1994) 717-43).

[4] = system: HIV-1; assay: Anti-HIV-1 activity, cell infection assay in MT-2 cells (pNL4.3-Ren supernatants); type: cell-based
Method: Plasmids, Virus, and Cells for Ex Vivo Assays.
Vectors pNL4.3-Luc and pNL4.3-Ren were generated by cloning luciferase and Renilla genes, respectively, in the nef site of HIV-1 proviral plasmid pNL4.3 (Adachi et al., J Virol 59(2) (1986) 284-91), as described previously in the state of the art (Garcia-Perez et al., J Med Virol 79(2) (2007) 127-37). MT-2 cells (Harada et al., Science 229(4713) (1985) 563-6) and 293T cells (American Type Culture Collection, Rockville, USA) were cultured as described previously (Prado et al., Biochem Pharmacol 107 (2016) 14-28).
(§2) Anti-HIV-1 Activity and Cell Toxicity.
(§3) The methodology used for performing and analyzing these experiments has been described previously (Prado et al., Biochem Pharmacol 107 (2016) 14-28; Gonzalez-Bulnes et al., Angewandte Chemie-International Edition 52(50) (2013) 13405-13409). Briefly, infectious supernatants were obtained from 293T cells transfected with the pNL4.3-Ren plasmid. MT-2 cells were infected with these supernatants in the presence of the compounds, and the anti-HIV activity was quantified 48 h after infection by determining luciferase activity in the cell lysates. Cell viability was evaluated in cells treated with the same compound concentrations using the CellTiter-Glo assay (Promega). The antiviral activity and cell toxicity results represent the average of at least three independent experiments.

[5] = Cell toxicity, CellTiter-Glo assay; type: cell-based; conditions: human
Excerpt: as §2, §3

[6] = system: MT-2 cells; assay: Cell toxicity, CellTiter-Glo assay; type: cell-based; conditions: CC50 versus antiviral concentration of the infection experiments
Excerpt: as §2, §3

[7] = system: complete HIV-1 (NL4.3-luc); assay: Cell transfection assay, full-length HIV-1 luciferase plasmid (NL4.3-luc) in MT-2 cells; type: cell-based
Method: (§4) Cell Transfection Assays.
(§5) MT-2 cells were transfected with plasmids containing a luciferase reporter gene the expression of which was under the control of the complete HIV-1 (NL4.3-luc) or HIV-1 LTR promoter (LTR-Luc). After transfection, the cells were treated with different compound concentrations, and the luciferase activity in the cell lysates was quantified 48 h later (Prado et al., Biochem Pharmacol 107 (2016) 14-28; Gonzalez-Bulnes et al., Angewandte Chemie-International Edition 52(50) (2013) 13405-13409).
In order to identify the target or the set of targets of the tested compounds, an assay based on the transfection of a full-length HIV-1 vector is performed. In this experiment, the entry, reverse transcription, and DNA integration phases of the viral cycle are sidestepped, such that only transcriptional or post-transcriptional events which can be blocked by the inhibitor under study are produced.

[8] = system: HIV-1 LTR promoter (LTR-Luc); assay: Cell transfection assay, LTR-Luc plasmid in MT-2 cells; type: cell-based; conditions: for pEC50: read-out: EC50 of transfection, LTR; for inhibition of LTR-dependent expression: compared with HIV-1 infection and transfection assays
Method: as §4, §5
The antiviral mechanism of compounds 1a and 2a was examined with additional cellular assays.

[9] = system: HIV-1 RNA transcripts (RRE-Rev system in a cellular context); assay: HIV-1 RNA processing analysis by RT-qPCR in MT-2 cells transfected with pNL4.3; type: cell-based; conditions: 5 and 10 μM
Method: HIV-1 RNA Processing Analysis.
MT-2 cells, previously treated for 72 or 96 hours with two different concentrations (5 and 10 μM) of compound 1a or 2a, were transfected with a pNL4.3 plasmid. Total cellular RNA was then isolated, treated with DNase I, and reverse transcribed as described in the state of the art (Prado et al., Biochem Pharmacol 107 (2016) 14-28). The unprocessed, semi-processed, and completely processed HIV-1 RNA transcripts were quantified by means of qPCR in relation to an untreated control obtained, using primers described by Mohammadi et al. (PLoS Pathog 9(1) (2013) e1003161), and GAPDH as endogenous control.
Whether or not compounds 1a and 2a acted in the RRE-Rev system in a cellular context was then verified. After transfecting the cells with a full-length proviral vector, the amounts of unprocessed, semi-processed, and completely processed HIV-1 RNA transcripts were quantified by means of RT-qPCR in the absence and presence of each compound (Prado et al., Biochem Pharmacol 107 (2016) 14-28). Given that Rev indirectly puts the splicing process at a disadvantage by transporting unprocessed or semi-processed viral transcripts from the nucleus to the cytoplasm, the blocking of the RRE-Rev system should increase the levels of completely processed species and reduce the amount of unprocessed or semi-processed HIV-1 transcripts.

[10] = system: IIBh RNA; assay: NMR spectroscopy of compound binding to IIBh RNA; parameters: species or system HIV-1; conditions: increasing ligand:RNA molar ratios
Method: The NMR spectra were acquired in a 500 MHz Bruker Avance spectrometer and analyzed with Topspin 3.5 (Bruker Biospin, Billerica, USA). The interaction between the tested compounds and IIBh RNA samples dissolved at a concentration of 40-60 μM were monitored as described previously in the state of the art (Prado et al., Biochem Pharmacol 107 (2016) 14-28; Gonzalez-Bulnes et al., Angewandte Chemie-International Edition 52(50) (2013) 13405-13409), using one-dimensional and two-dimensional experiments (TOCSY) at increasing ligand:RNA molar ratios.
NMR spectroscopy is then used for identifying the binding sites in the IIBh fork of the compounds. […] This compound altered the signals of residues C9, A19, C20, and U23 comprising the Rev binding site, but also disrupted the signals of the double-helix stems flanking the loop. 2a and 2b required a higher drug:RNA molar ratio to induce changes in the signals of IIBh RNA.

[11] = range given for FA and EMSA together for 2a and 2b, read-out: IC50 (FA, IIB-Rev34-50 interaction)
[12] = IIBh-19ap, 100-fold molar excess of LTRd DNA duplex, read-out: Kd(IIBh + LTRd)
[13] = IIBh-19ap, 100-fold molar excess of RNAtCys, read-out: Kd(IIBh + tRNA)
[14] = Human immunodeficiency virus 1, MT2, 48 h, read-out: EC50 of infection, HIV
[15] = Human immunodeficiency virus 1, MT2, read-out: EC50 cell infection assay
[16] = MT-2 cells, CellTiter-Glo, read-out: CC50
[17] = Human immunodeficiency virus 1, MT2, 48 h, read-out: EC50 of transfection, HIV
[18] = Human immunodeficiency virus 1, MT2, read-out: EC50 transfection assay of full-length HIV-1 vector
[19] = 60 nM IIBh and 10 nM frevp, three independent experiments, read-out: IC50 IIB-Rev34-50
[20] = IIBh-19ap, no competitor, read-out: Kd(IIBh)

Compound	pIC50 [1, 11]	specificity of the interaction with IIB [3]	pKd [3, 12]	pKd [3, 13]	specificity IIB/DNA [3]	specificity IIB/RNA [3]	pEC50 [4, 14]	pEC50 [4, 15]	CC50 [5, 16]	CC50 values fold greater than the antiviral concentrations [6]	pEC50 [7, 17]	pEC50 [7, 18]	inhibition of LTR-dependent expression [8]	effect on pattern of unprocessed, semi-processed and completely processed HIV-1 RNA transcripts [9]	levels of viral transcripts in relation to untreated cells [9]	changes of IIBh RNA NMR signals [10]	pIC50 [1, 19]	pIC50 [2]	pKd [3, 20]	other results
CN(C)CCOc1cc2c(c3ccccc13)-c1ccccc1C2=O [Compound 1a]	5.17	moderate specificity	5.55	5.62	0.50	0.58	6.08	6.08	28.1 µM	34 fold	5.60	5.48 to 5.60	weaker inhibition of LTR-dependent expression in relation to the activity detected in the complete HIV-1 transfection assay	This effect was clearly observed	significant reduction in the levels of viral transcripts	widened or altered the chemical shift of IIBh resonances at low drug:RNA molar ratios				concentrations at which formation of RRE-Rev complexes with an unusual molecular weight was promoted [2]: greater than 10 μM; pKd ([3]; fluorescence intensity, read-out: Kd for subdomain IIB of the RRE): 5.85; pEC50 ([8]; Human immunodeficiency virus 1, MT2, 48 h): 4.60 to 4.90
Fc1nc(N2CCNCC2)c(F)c(Sc2ccc(Cl)cc2)c1F [Compound 2a]		specific	5.04	5.05	1.17	1.20	5.70	5.70		22 fold	5.48	5.48 to 5.60	inhibited LTR-dependent expression with an EC50 value similar to those measured in the HIV-1 infection and transfection experiments	did not induce clear changes in the patterns of unprocessed viral transcripts with respect to processed viral transcripts	reduced the amount of viral transcripts to a lesser extent with respect to 1a	affected the signals of residues located in the stems flanking the internal loop	5.32	5.33	4.97	CC50 [5]: 43.9 µM; pEC50 ([8]; Human immunodeficiency virus 1, MT2, MT-2 cells, LTR-Luc, 48 h): 5.36
N=c1c(S(=O)(=O)c2ccc(Cl)cc2)cc2c(=O)n3ccccc3nc2n1C1CCCCC1 [Compound 2b]	4.86 to 4.99	specific	4.99	4.94	1.19	1.06	4.99	4.99	> 100 µM	> 10 fold	< 4.00					only induced the widening of signals of residue U23 of the loop at a high drug:RNA molar ratio	4.99	4.86	4.92	activity in the transfection assay ([7]; at concentrations lower than 100 μM): inactive
